Consider eleven compounds from ChEMBL document CHEMBL1201862, “PubChem BioAssay data set” (2004).

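Dose response: 5 concentrations. Exposure: 48 h. Format: 96-well plates. Endpoint: linear interpolation; highest concentration if not reached. At the GI50, growth is halved.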 The source made the active and inactive calls. Rule as the data show it: active = GI50 up to about 1.1 µM and inactive = higher. Bounds are passed on as bounds.

What all share (experiment): NCI anticancer screen, dose series, 48 h
Assay [1] relates to HL-60.
The test system of assay [2] is SK-OV-3.
Assay [3] deals with U-251.
Assay [4] concerns A498.
For assay [5], the system named is SF-268.
For assay [6], the system named is SR.
In assay [7] the test system is NCI-H226.
Assay [8] concerns HOP-92.
Assay [9] deals with SK-MEL-5.
The subject of assay [10] is ACHN.
The subject of assay [11] is KM12.
In assay [12] the test system is UO-31.
The subject of assay [13] is Malme-3M.
Assay [14] has as its system OVCAR-5.
In assay [15] the test system is OVCAR-3.
Assay [16] concerns NCI-H522.
Assay [17] relates to A549.
The test system of assay [18] is SK-MEL-28.
Assay [19] deals with T47D.
Assay [20] deals with Hs-578T.

Regarding `Cc1nc(-c2nc([N+](=O)[O-])c([N+](=O)[O-])[nH]2)cs1`, the GI50 in assay [1] was > 100 µM (inactive); in [2] it was > 100 µM (inactive); in assay [3], > 100 µM (inactive); in assay [4], > 100 µM (inactive); in assay [5], 88.9 µM (inactive); in assay [6], > 100 µM (inactive). For the same compound, the GI50 in assay [7], in assay [8], in assay [9], in [10], in [11] and in assay [12] was > 100 µM (inactive) in each case. Besides, the GI50 in [13], in assay [14], in [15], in assay [16], in [17] and in assay [18] was > 100 µM (inactive) each time.

As to `C=C1CC(C)(c2ccc(Nc3nc4ccccc4c4occc34)cc2)OC1=O` (stereo not given), the GI50 in assay [1] was 2.07 µM (inactive); in [2] it was 10.8 µM (inactive); in [3], 5.33 µM (inactive); in assay [4], 18.9 µM (inactive); in [5], 2.93 µM (inactive); in assay [6], 1.63 µM (inactive). In addition, the GI50 in assay [7] was < 0.01 µM (active); in [8], 1.95 µM (inactive); in assay [9], 5.09 µM (inactive); in [10] it was 4.26 µM (inactive); in assay [11], 5.97 µM (inactive); in assay [13], 17.2 µM (inactive). The GI50 in [14] is 14.1 µM (inactive); in [15], 3.74 µM (inactive); in assay [19], 3.03 µM (inactive); in assay [17], 4.52 µM (inactive); in assay [18] it was 13.9 µM (inactive).

For `O=C1NN=C(c2ccc([N+](=O)[O-])cc2)C1n1nc(-c2ccccc2)c2ccccc2c1=O` (stereo not given), the GI50 was > 45.6 µM (inactive) in assay [1]; > 100 µM (inactive) in assay [2]; > 95.7 µM (inactive) in assay [3]; > 100 µM (inactive) in assay [4]; > 100 µM (inactive) in [5]; > 68.2 µM (inactive) in assay [6]. Also, the GI50 in assay [7], in assay [8], in [9], in [10], in [11] and in [12] was > 100 µM (inactive) in each case. The GI50 in assay [13] is > 100 µM (inactive); in assay [14], > 100 µM (inactive); in assay [15], > 100 µM (inactive); in assay [16], > 100 µM (inactive); in assay [17] it was > 80 µM (inactive); in [18], > 100 µM (inactive).

With `CSc1n[n+](C)cc(N)c1N`, the GI50 was 51.9 µM (inactive) in assay [1]; > 100 µM (inactive) in assay [2]; > 100 µM (inactive) in assay [3]; > 100 µM (inactive) in assay [4]; > 100 µM (inactive) in assay [6]; > 100 µM (inactive) in assay [7]. The GI50 is 17.8 µM (inactive) in assay [8]; > 100 µM (inactive) in assay [9]; > 100 µM (inactive) in assay [10]; > 100 µM (inactive) in assay [11]; 88.9 µM (inactive) in assay [12]; 36.1 µM (inactive) in assay [13]. Also, the GI50 in [14], in assay [15], in assay [16], in [19], in assay [17] and in assay [18] was > 100 µM (inactive) in each case.

As to `CCOC(=O)c1cc(NC(=O)c2ccccc2)c(=O)n2c(cc3c(Cl)cccc32)c1O`, the GI50 in assay [1], in assay [20], in [2], in assay [3], in [4] and in [5] was > 100 µM (inactive) each time. The GI50 in assay [6], in assay [7], in assay [8], in assay [9], in assay [10] and in [11] was > 100 µM (inactive) each time. Also, the GI50 in assay [12], in assay [13], in [14], in assay [15], in assay [16] and in assay [17] was > 100 µM (inactive) throughout. Also, the GI50 in assay [18] was > 100 µM (inactive).

Take `Cc1sc2nc(-c3cccc([N+](=O)[O-])c3)c(/C=N/N=C(N)N)n2c1C`: the GI50 is 1.81 µM (inactive) in [1]; 1.66 µM (inactive) in assay [20]; 1.8 µM (inactive) in assay [2]; 1.7 µM (inactive) in assay [3]; 1.55 µM (inactive) in [4]; 1.93 µM (inactive) in assay [5]. Moreover, the GI50 in assay [6] was 1.75 µM (inactive); in assay [7], 1.82 µM (inactive); in [8] it was 1.46 µM (inactive); in [9] it was 1.67 µM (inactive); in [10], 1.71 µM (inactive); in assay [11] it was 1.71 µM (inactive). Also, the GI50 was 1.75 µM (inactive) in assay [12]; 2.08 µM (inactive) in assay [13]; 1.65 µM (inactive) in assay [14]; 1.82 µM (inactive) in assay [15]; 1.77 µM (inactive) in [16]; 1.66 µM (inactive) in [17]. Besides, the GI50 in assay [18] was 1.67 µM (inactive).

In the case of `NC(=O)c1csc(CCCCCCc2nc(C(N)=O)cs2)n1`, the GI50 in [1] is > 100 µM (inactive); in [2], > 100 µM (inactive); in assay [3], > 42.5 µM (inactive); in assay [4] it was > 100 µM (inactive); in assay [5], > 100 µM (inactive); in [6], > 100 µM (inactive). The GI50 in assay [7] is > 100 µM (inactive); in assay [8], > 100 µM (inactive); in assay [9], > 100 µM (inactive); in [10] it was > 100 µM (inactive); in assay [11], > 59.4 µM (inactive); in assay [12], > 100 µM (inactive). The GI50 in [13], in assay [14], in assay [15], in assay [16], in assay [17] and in assay [18] was > 100 µM (inactive) in each case.

`Cc1ccc2c(c1)Nc1ccccc1P2(=O)O`: the GI50 in [1], in assay [2], in [3], in [4], in assay [5] and in assay [6] was > 100 µM (inactive) in each case. Further, the GI50 in [7], in assay [8], in assay [9], in [10], in assay [11] and in assay [12] was > 100 µM (inactive) each time. Also, the GI50 in assay [13], in assay [14], in [15], in assay [16], in assay [19] and in assay [17] was > 100 µM (inactive) each time. Moreover, in assay [18], the GI50 was > 100 µM (inactive).

Regarding `CNC(C)Cc1ccc(O)cc1` (stereo not given), the GI50 in [1], in assay [2], in assay [3], in assay [4], in assay [5] and in assay [6] was > 100 µM (inactive) throughout. In addition, the GI50 in [7], in assay [8], in [9], in [10], in assay [11] and in [12] was > 100 µM (inactive) each time. Moreover, the GI50 in assay [13], in assay [14], in assay [15], in assay [16], in [17] and in assay [18] was > 100 µM (inactive) throughout.

Take `CCOC(=O)c1sc2nc(SC)nc3c2c1NC(=O)CN3c1ccc(F)cc1`: the GI50 is 98.6 µM (inactive) in assay [1]; 27.1 µM (inactive) in assay [20]; 25 µM (inactive) in assay [2]; 43.5 µM (inactive) in [3]; 47.6 µM (inactive) in [4]; 20 µM (inactive) in [5]. Besides, the GI50 in [6] is > 100 µM (inactive); in assay [7], 41.7 µM (inactive); in assay [8] it was 31.8 µM (inactive); in [9], 46.3 µM (inactive); in assay [10], 21.6 µM (inactive); in assay [11], > 100 µM (inactive). The GI50 is 18 µM (inactive) in assay [12]; 48.4 µM (inactive) in assay [13]; 41.7 µM (inactive) in [14]; 26.4 µM (inactive) in assay [15]; 71.9 µM (inactive) in assay [16]; 18.6 µM (inactive) in assay [17]. The GI50 in assay [18] is 8.18 µM (inactive).

As to `Nc1ncnc2c1ncn2C1OC(CO)CC1O` (stereo not given), the GI50 was > 10 µM (inactive) in [1]; 25.5 µM (inactive) in [20]; 51.9 µM (inactive) in [2]; 41.7 µM (inactive) in assay [3]; 53.7 µM (inactive) in assay [5]; > 100 µM (inactive) in assay [6]. Besides, the GI50 in assay [7] was > 100 µM (inactive); in [8], 40.4 µM (inactive); in [9] it was > 100 µM (inactive); in assay [10], > 100 µM (inactive); in [11], 22 µM (inactive); in assay [12], > 100 µM (inactive). Further, the GI50 in assay [14] is > 100 µM (inactive); in assay [15], 39.3 µM (inactive); in assay [16] it was 18 µM (inactive); in [17] it was 75.7 µM (inactive); in [18], 25.6 µM (inactive).
